Measured values as given in patent US4241053A, “Novel nitrosourea compounds and process for preparing the same” (Tanabe Seiyaku Co., Ltd., priority 1978, dated 1980).

Tests used:
[1] = Preventive effect against the growth of Ehrlich ascites tumor (Method A); assay type: in vivo, mice (female ICR); details: mouse, in vivo, ip; maximum dose with 100% inhibition of Ehrlich ascites tumor without causing death; unit from dose column; read-out: MTD (Maximum Tolerated Dose)
Protocol: (§1) (A) Preventive effect against the growth of Ehrlich ascites tumor:
(§2) 10^6 tumor cells of Ehrlich ascites carcinoma were inoculated intraperitoneally into a group of five femal mice (ICR mice, body weight: 19-23 g). A test compound was dissolved in a physiological saline solution [In the case where CCNU was employed as the test compound, said compound was suspended in a physiological saline solution containing 0.1% NIKKOL HCO-60 (trademark; a surface active agent manufactured by Nikko Chemicals Co. Ltd.)] and administered intraperioneally to the mice. The administration of the test compound was begun 24 hours after the inoculation of the tumor cells and performed once a day for 5 days. The volume of ascites in the treated mice were measured after 7 days of the experiment.
(§3) ^a T = the average volume of ascites in the treated mice
(§4) C = the average volume of ascites in the untreated mice (control group of
(§5) 100% inhibition for the growth of Ehrlich ascites tumor in mice without
(§6) causing the death of said mice)
(§7) 100% inhibition for the growth of said ascites tumor)
(§8) ^e Therapeutic index = MTD/MED
(§9) *the number of mice died/the number of mice used

[2] = test system: Ehrlich ascites carcinoma; assay: as above; assay type: in vivo, mice (female ICR); details: for inhibition in vivo at 3.12 mg/kg: 3.12 mg/kg/day i.p.; for inhibition in vivo at 6.25 mg/kg: 6.25 mg/kg/day i.p.; for inhibition in vivo at 12.5 mg/kg: 12.5 mg/kg/day i.p.; for inhibition in vivo at 0.09 mg/kg: 0.09 mg/kg/day i.p.; for inhibition in vivo at 0.19 mg/kg: 0.19 mg/kg/day i.p.; for inhibition in vivo at 0.39 mg/kg: 0.39 mg/kg/day i.p.; for inhibition in vivo at 0.78 mg/kg: 0.78 mg/kg/day i.p.; for minimal effective dose: minimum dose with 100% inhibition of ascites tumor, unit from dose column, read-out: MED (Minimum Effective Dose); for inhibition in vivo at 1.56 mg/kg: 1.56 mg/kg/day i.p.; for inhibition in vivo at 25 mg/kg: 25 mg/kg/day i.p.
Protocol: as §1, §2, §3, §4, §5, §6, §7, §8, §9

Leukemia L-1210 = assay: Effect on the life span of mice implanted with leukemic cells of L-1210 (Method B); assay type: in vivo, mice (male BDF1); details: for ILS at 6.25 mg/kg / responders at 6.25 mg/kg: 6.25 mg/kg/day i.p.; for ILS at 12.5 mg/kg / responders at 12.5 mg/kg: 12.5 mg/kg/day i.p.; for ILS at 25 mg/kg / responders at 25 mg/kg: 25 mg/kg/day i.p.; for ILS at 50 mg/kg / responders at 50 mg/kg: 50 mg/kg/day i.p.
Protocol: (B) Effect on the life span of mice implanted with leukemic cells of L-1210:
10^5 leukemic cells of L-1210 were inoculated intraperitoneally into a group of four or six male mice (BDF1 mice, body weight: 19-23 g). A test compound was dissolved in a physiological saline solution and administered intraperitoneally to the mice. The administration of the test compound was begun 24 hours after the inoculation of the leukemic cells and performed once a day for 5 days. The survival days of the treated mice were observed.
^a T = the mean survival days of the treated mice
C = the mean survival days of the untreated mice (control group of mice)
^b ILS(Increase in Life Span) =-
^c 60day survivors = the number of mice survived for 60 days/the

[3] = 100 mg/kg/day i.p., once a day for 5 days
[4] = Mus musculus, Ehrlich, ip, 168 h, once a day for 5 days, read-out: Inhibition ratio
[5] = Mus musculus, Ehrlich, ip, 168 h, 50 mg/kg/day i.p., once a day for 5 days, read-out: Inhibition ratio
[6] = Mus musculus, Ehrlich, ip, 168 h
[7] = Mus musculus, L1210, ip, 120 h, once a day for 5 days, read-out: ILS (Increase in Life Span)
[8] = Mus musculus, L1210, ip, 1440 h, once a day for 5 days, read-out: 60-day survivors (mice survived for 60 days/mice used) (converted)
[9] = Mus musculus, Ehrlich, ip, 168 h, 100 mg/kg/day i.p., once a day for 5 days, read-out: Inhibition ratio
[10] = 400 mg/kg/day i.p., once a day for 5 days
[11] = Mus musculus, Ehrlich, ip, 168 h, 200 mg/kg/day i.p., once a day for 5 days, read-out: Inhibition ratio

| SMILES | MTD at 168 h [1] | Toxic (number of mice died/number of mice used) [2, 3] | inhibition in vivo at 3.12 mg/kg [2, 4] | inhibition in vivo at 6.25 mg/kg [2, 4] | inhibition in vivo at 12.5 mg/kg [2, 4] | inhibition in vivo at 50 mg/kg [2, 5] | Therapeutic index (MTD/MED) [2] | inhibition in vivo at 0.09 mg/kg [2, 4] | inhibition in vivo at 0.19 mg/kg [2, 4] | inhibition in vivo at 0.39 mg/kg [2, 4] | inhibition in vivo at 0.78 mg/kg [2, 4] | minimal effective dose [2, 6] | ILS at 6.25 mg/kg (Leukemia L-1210; [7]) | ILS at 12.5 mg/kg (Leukemia L-1210; [7]) | ILS at 25 mg/kg (Leukemia L-1210; [7]) | ILS at 50 mg/kg (Leukemia L-1210; [7]) | responders at 6.25 mg/kg (Leukemia L-1210; [8]) | responders at 25 mg/kg (Leukemia L-1210; [8]) | responders at 50 mg/kg (Leukemia L-1210; [8]) | inhibition in vivo at 1.56 mg/kg [2, 4] | other results |
| --- | --- | --- | --- | --- | --- | --- | --- | --- | --- | --- | --- | --- | --- | --- | --- | --- | --- | --- | --- | --- | --- |
| O=NN(CCCl)C(=O)NC1CCCCC1 [CCNU, 1-(2-chloroethyl)-1-nitroso-3-cyclohexylurea, reference compound] | 50 mg/kg/day | 5/5 | 21.1% | 33.3% | 100% | 100% | – | – | – | – | – | – | – | – | – | – | – | – | – | – | – |
| COCCN(C(=O)N(CCCl)N=O)C1OC[C@H](O)[C@H](O)[C@H]1O (stereo partly drawn) [Compound 3, 1-(2-chloroethyl)-1-nitroso-3-(2-methoxyethyl)-3-(L-arabinopyranosyl)urea] | 50 mg/kg/day | 3/5 | 100% | – | 100% | 100% | 128 | 13.5% | 55.6% | 100% | 100% | 0.39 mg/kg/day | 87.5% | > 556% | > 733% | > 615% | 0% | 100% | 83.3% | – | responders at 12.5 mg/kg (Leukemia L-1210; [8]): 66.7% |
| COCC(C)N(C(=O)N(CCCl)N=O)C1O[C@H](CO)[C@H](O)[C@H](O)[C@H]1O (stereo partly drawn) [Compound 8, 1-(2-chloroethyl)-1-nitroso-3-(1-methyl-2-methoxy-ethyl)-3-(D-galactopyranosyl)urea] | 100 mg/kg/day | – | – | 100% | – | – | 64 | – | – | 18.4% | 65.8% | 1.56 mg/kg/day | – | 158% | > 496% | > 722% | – | 50% | 100% | 100% | Toxic (number of mice died/number of mice used) ([2]; 200 mg/kg/day i.p., once a day for 5 days): 5/5; inhibition in vivo at 25 mg/kg [2, 4]: 100%; inhibition in vivo at 100 mg/kg [2, 9]: 100%; responders at 12.5 mg/kg (Leukemia L-1210; [8]): 0% |
| COC(C)CN(C(=O)N(CCCl)N=O)C1OC[C@H](O)[C@H](O)[C@H]1O (stereo partly drawn) [Compound 5, 1-(2-chloroethyl)-1-nitroso-3-(2-methoxy-n-propyl)-3-(L-arabinopyranosyl)urea] | 50 mg/kg/day | 4/5 | 100% | – | 100% | 100% | 128 | 8.2% | 36.7% | 100% | 100% | 0.39 mg/kg/day | 91.7% | > 529% | > 733% | > 678% | 0% | 100% | 75% | – | responders at 12.5 mg/kg (Leukemia L-1210; [8]): 75%; increase in the average life span (Leukemia L-1210; daily dose 0.5 mg/kg i.p., five consecutive days): about 30% |
| COCCN(C(=O)N(CCCl)N=O)C1OC[C@@H](O)[C@H](O)[C@H]1O (stereo partly drawn) [Compound 10, 1-(2-chloroethyl)-1-nitroso-3-(2-methoxyethyl)-3-(D-xylopyranosyl)urea] | 25 mg/kg/day | – | – | – | – | – | 64 | 25% | 89.6% | 100% | – | 0.39 mg/kg/day | – | – | – | – | – | – | – | 100% | Toxic (number of mice died/number of mice used) ([2]; 50 mg/kg/day i.p., once a day for 5 days): 2/5; inhibition in vivo at 0.04 mg/kg ([2]; Mus musculus, Ehrlich, ip, 168 h, 0.04 mg/kg/day i.p., once a day for 5 days, read-out: Inhibition ratio): 2.1%; inhibition in vivo at 6.23 mg/kg ([2]; Mus musculus, Ehrlich, ip, 168 h, 6.23 mg/kg/day i.p., once a day for 5 days, read-out: Inhibition ratio): 100%; inhibition in vivo at 25 mg/kg [2, 4]: 100% |
| COCC(C)N(C(=O)N(CCCl)N=O)C1O[C@H](CO)[C@@H](O[C@H]2O[C@H](CO)[C@@H](O)[C@H](O)[C@H]2O)[C@H](O)[C@H]1O (stereo partly drawn) [Compound 2, 1-(2-chloroethyl)-1-nitroso-3-(1-methyl-2-methoxy-ethyl)-3-[O-α-D-glucopyranosyl-(1→4)-D-glucopyranosyl]urea] | 200 mg/kg/day | – | 100% | – | 100% | 100% | 128 | – | – | – | -8.6% | 1.56 mg/kg/day | 85.7% | – | > 604% | > 757% | 0% | 75% | 100% | 100% | Toxic (number of mice died/number of mice used) [2, 10]: 2/5; therapeutic index (M.T.D./M.E.D.) relative to that of GANU ([2]; Ehrlich ascites tumor, greater than that of GANU): 4 times; inhibition in vivo at 200 mg/kg [2, 11]: 100%; ILS at 100 mg/kg (Leukemia L-1210; Mus musculus, L1210, ip, 120 h, 100 mg/kg/day i.p., once a day for 5 days, read-out: ILS (Increase in Life Span)): > 757%; responders at 100 mg/kg (Leukemia L-1210; Mus musculus, L1210, ip, 1440 h, 100 mg/kg/day i.p., once a day for 5 days, read-out: 60-day survivors (mice survived for 60 days/mice used) (converted)): 100% |
| COC(C)CN(C(=O)N(CCCl)N=O)C1O[C@H](CO)[C@@H](O[C@H]2O[C@H](CO)[C@@H](O)[C@H](O)[C@H]2O)[C@H](O)[C@H]1O (stereo partly drawn) [Compound 1, 1-(2-chloroethyl)-1-nitroso-3-(2-methoxy-n-propyl)-3-[O-α-D-glucopyranosyl-(1→4)-D-glucopyranosyl]urea] | 200 mg/kg/day | – | 100% | – | 100% | 100% | 64 | – | – | – | – | 3.12 mg/kg/day | – | – | – | – | – | – | – | 4.4% | Toxic (number of mice died/number of mice used) [2, 10]: 4/5; inhibition in vivo at 200 mg/kg [2, 11]: 100% |
| COCCN(C(=O)N(CCCl)N=O)C1O[C@H](CO)[C@@H](O)[C@H](O)[C@@H]1O (stereo partly drawn) [Compound 11, 1-(2-chloroethyl)-1-nitroso-3-(2-methoxyethyl)-3-(D-mannopyranosyl)urea] | 400 mg/kg/day | – | 64% | 100% | – | – | 64 | – | – | – | – | 6.25 mg/kg/day | – | – | – | – | – | – | – | 14% | Toxic (number of mice died/number of mice used) ([2]; 800 mg/kg/day i.p., once a day for 5 days): 5/5; inhibition in vivo at 25 mg/kg [2, 4]: 100%; inhibition in vivo at 100 mg/kg [2, 9]: 100%; inhibition in vivo at 400 mg/kg ([2]; Mus musculus, Ehrlich, ip, 168 h, 400 mg/kg/day i.p., once a day for 5 days, read-out: Inhibition ratio): 100% |
